Experimental data reported in patent publication US20210062159A1, “CELL AGGREGATION PROMOTER” (KANEKA CORPORATION, priority 2017, published 2021).

Key:
Assay type in all cases: cell-based
[1] = system: human iPS cells (TkDN4-M cell lines); experiment: Cell aggregation assay, suspension culture, phase contrast microscopy at Day 1; details: 10 μM CCG-1423, 2.5 μM Y-27632, Day 1 of culture, 12-well plate, FIG. 1
Procedure: TkDN4-M cell lines (Institute of Medical Science, The University of Tokyo) were used as human iPS cells. Human iPS cells were seeded on cell culture dishes coated with Vitronectin (Thermo Fisher Scientific Co., Ltd.) and subjected to a maintenance culture using Essential 8™ (Thermo Fisher Scientific Co., Ltd.) as the culture medium. Accutase (Thermo Fisher Scientific Co., Ltd.) was used as a cell detachment agent during passage. In addition, when the cells were seeded, Y-27632 (Wako Pure Chemical Industries, Ltd.) at a concentration of 10 μM was added to a culture medium. The culture medium was changed every day. For experiments, human iPS cells (the number of passage was 50 or less) were used.
(§1) Human iPS cells that had been cultured using the protocol of Example 1 were treated with Accutase for 3 to 5 minutes and were detached and dispersed to single cells. The resulting cells were suspended in Essential 8™ culture medium containing a final concentration of 5 mg/mL of BSA (Wako Pure Chemical Industries, Ltd.) and a final concentration of 2.5 μM of Y-27632 (Wako Pure Chemical Industries, Ltd.), and a portion thereof was stained with trypan blue and the number of cells was counted. The cell suspension was prepared so as to contain 2×10^5 cells per ml. […]

[2] = system: human iPS cells (TkDN4-M cell lines); experiment: Percentage of cells positive for undifferentiation markers (SOX2, OCT4, Nanog), flow cytometry; details: Day 5 of culture, aggregates produced in medium comprising CCG-1423, FIG. 6
Procedure: In addition, at Day 5 of culture, cell aggregates were collected, dispersed with Accutase, and then suspended in Essential 8™ culture medium containing 5 mg/mL BSA. A portion of this cell suspension was stained with trypan blue and the number of cells was counted. After the above cell suspensions were centrifuged at 300 g for 3 minutes, the supernatant was then removed, and the cells were washed with PBS (phosphate buffered saline). Next, the cells were fixed with 4% paraformaldehyde (Wako Pure Chemical Industries, Ltd.) at room temperature for 20 minutes, then washed 3 times with PBS. After cells were resuspended with 300 μL of PBS, 3 mL of cold methanol was added while stirring with voltex, and permeabilized at −20° C. overnight or more. After 3 washes with 3% FBS (fetal bovine serum)/PBS, cells were resuspended with 3% FBS (fetal bovine serum)/PBS and blocked at room temperature for 30 minutes to 1 hour. Subsequently, the cells were stained with fluorescently labeled anti-SOX2 antibodies (Cat. No. 656110, BioLegend, Inc.) and fluorescently labeled anti-OCT4 antibodies (Cat. No. 653703, BioLegend, Inc.) and fluorescently labeled anti-Nanog antibodies (Cat. No. 674010, BioLegend, Inc.) at 4° C. for 30 minutes to 1 hour. After washed once with 3% FBS (fetal bovine serum)/PBS, the cells were made to pass through a cell strainer. The resulting cells were analyzed on FACSVerse. A control test was conducted using cells that were treated in the same way except for reacting, instead of the above three antibodies (fluorescently labeled anti-SOX2 antibody, fluorescently labeled anti-OCT4 antibody, fluorescently labeled anti-Nanog antibody), with three fluorescently labeled isotype control antibodies (Cat. No. 400129, Cat. No. 400314, Cat. No. 400136; BioLegend, Inc.) corresponding to each of the above three antibodies.

[3] = system: human iPS cells (TkDN4-M cell lines); experiment: Cell aggregate formation and size (widest portion) in swirling suspension culture, phase contrast microscopy; details: for Number of cell aggregates by size / Percentage of cell aggregates by size: CCG-1423 added
Procedure: A cell suspension was prepared in the same manner as in Example 2, and separately, the cell aggregation promoter was adjusted so that the final concentration of CCG-1423 (same as above) was 4.55 mg/mL (10 mM), then the adjusted cell aggregation promoter was added to the cell suspension so that the final concentration of CCG-1423 was 10 μM, and the cells were seeded at a ratio of 4 mL/well in a 6-well plate for suspension culture (Sumitomo Bakelite Co., Ltd.). The cell-seeded plate was subjected to a swirling culture on a rotary shaker (OPTIMA, Inc.) at a speed of 90 rpm along the horizontal plane to draw a circle with a swirling width (diameter) of 25 mm and cells were cultured in suspension under a condition at 5% CO2 and 37° C. After the next day of culture (Day 1 of culture), the culture medium was exchanged daily for a fresh culture medium (Essential 8™ culture medium containing BSA (Wako Pure Chemical Industries, Ltd.) at a final concentration of 5 mg/mL), and the culture continued until 5 days after the start of culture. A control test was conducted by culturing in the same way except for using CCG-1423 and Y-27632 free culture media. Images were obtained by phase contrast microscopy every day during culture. While 208 cell aggregates in images obtained at Day 1 of culture being observed and compared using a micrograph scale, the width (referred to as “φ”) of the widest portion of each cell aggregate was measured, distribution thereof was examined, and average±standard deviation was calculated. The concentration of glucose contained in the culture supernatant collected at the time of culture medium exchange was measured with biosensor BF-5iD (Prince Measuring Equipment Co., Ltd.) to calculate glucose consumption.

[4] = system: human iPS cells (TkDN4-M cell lines); experiment: Number of dead cells, Cytotoxicity LDH Assay Kit-WST, Day 1 of suspension culture; details: 10 μM CCG-1423, 2.5 μM Y-27632, Day 1 of culture, FIG. 2
Procedure: as §1, with “ml. Separately, the cell aggregation promoter was adjusted so that the final concentration of CCG-1423 (Cayman, 10010350) was 4.55 mg/mL (10 mM), then the adjusted cell aggregation promoter was added to the cell suspension so that the final concentration of CCG-1423 was 10 μM. Then the cells were seeded at a ratio of 1.3 mL/well in a 12-well plate for suspension culture (Sumitomo Bakelite Co., Ltd.).” for “ml.”
At the next day after the start of culture (Day 1 of culture), images were obtained by phase contrast microscopy, and the number of dead cells was calculated with Cytotoxicity LDH Assay Kit-WST (Peer Chemistry Research Institute, Inc.).

[5] = system: human iPS cells (TkDN4-M cell lines); experiment: Cell yield at Day 5 of suspension culture (trypan blue, hemocytometer); details: Day 5 of culture, aggregates formed with 10 μM CCG-1423, FIG. 5
Procedure: A cell suspension was prepared in the same manner as in Example 2, and separately, the cell aggregation promoter was adjusted so that the final concentration of CCG-1423 (same as above) was 4.55 mg/mL (10 mM), then the adjusted cell aggregation promoter was added to the cell suspension so that the final concentration of CCG-1423 was 10 μM, and the cells were seeded at a ratio of 4 mL/well in a 6-well plate for suspension culture (Sumitomo Bakelite Co., Ltd.). […] While 208 cell aggregates in images obtained at Day 1 of culture being observed and compared using a micrograph scale, the width (referred to as “φ”) of the widest portion of each cell aggregate was measured, distribution thereof was examined, and average±standard deviation was calculated. The concentration of glucose contained in the culture supernatant collected at the time of culture medium exchange was measured with biosensor BF-5iD (Prince Measuring Equipment Co., Ltd.) to calculate glucose consumption.
In addition, at Day 5 of culture, cell aggregates were collected, dispersed with Accutase, and then suspended in Essential 8™ culture medium containing 5 mg/mL BSA. A portion of this cell suspension was stained with trypan blue and the number of cells was counted. […] The resulting cells were analyzed on FACSVerse. […]
Cell yields were also measured at Day 5 of culture. […]

[6] = system: human iPS cells (TkDN4-M cell lines); experiment: Glucose consumption of suspension culture (biosensor BF-5iD); details: Day 1 to Day 5 of culture, CCG-1423 added condition, FIG. 4
Procedure: A cell suspension was prepared in the same manner as in Example 2, and separately, the cell aggregation promoter was adjusted so that the final concentration of CCG-1423 (same as above) was 4.55 mg/mL (10 mM), then the adjusted cell aggregation promoter was added to the cell suspension so that the final concentration of CCG-1423 was 10 μM, and the cells were seeded at a ratio of 4 mL/well in a 6-well plate for suspension culture (Sumitomo Bakelite Co., Ltd.). The cell-seeded plate was subjected to a swirling culture on a rotary shaker (OPTIMA, Inc.) at a speed of 90 rpm along the horizontal plane to draw a circle with a swirling width (diameter) of 25 mm and cells were cultured in suspension under a condition at 5% CO2 and 37° C. […] While 208 cell aggregates in images obtained at Day 1 of culture being observed and compared using a micrograph scale, the width (referred to as “φ”) of the widest portion of each cell aggregate was measured, distribution thereof was examined, and average±standard deviation was calculated. The concentration of glucose contained in the culture supernatant collected at the time of culture medium exchange was measured with biosensor BF-5iD (Prince Measuring Equipment Co., Ltd.) to calculate glucose consumption.

[7] = Day 1 of culture, 10 μM CCG-1423
[8] = size range 40- μm, Day 1 of culture
[9] = size range 60- μm, Day 1 of culture
[10] = size range 80- μm, Day 1 of culture
[11] = size range 100- μm, Day 1 of culture
[12] = size range 120- μm, Day 1 of culture
[13] = size range 140- μm, Day 1 of culture
[14] = size range 160- μm, Day 1 of culture
[15] = size range 180- μm, Day 1 of culture
[16] = size range 200- μm, Day 1 of culture
[17] = size range 220- μm, Day 1 of culture
[18] = size range 240- μm, Day 1 of culture
[19] = size range 260- μm, Day 1 of culture
[20] = size range 280- μm, Day 1 of culture
[21] = size range 300- μm, Day 1 of culture

Structure (SMILES): CC(ONC(=O)c1cc(C(F)(F)F)cc(C(F)(F)F)c1)C(=O)Nc1ccc(Cl)cc1 (stereo not drawn) [CCG-1423, N-[2-[4(4-chlorophenyl)amino]-1-methyl-2-oxoethoxy]-3,5-bis(trifluoromethyl)-benzamide]
- cell aggregation compared to the control test (0 μM CCG-1423) [1]: aggregation was promoted
- percentage of cells positive for Nanog [2]: ≥ 99%
- percentage of cells positive for OCT4 [2]: ≥ 97%
- percentage of cells positive for SOX2 [2]: ≥ 99%
- cell aggregate formation after seeding to Day 1 of culture ([3]; 10 μM CCG-1423, 6-well plate, FIG. 3): cell aggregates were formed
- cell aggregates on continued culture to Day 5 ([3]; 10 μM CCG-1423 until Day 1, then medium exchanged daily, Day 1 to Day 5, FIG. 3): cell aggregates were expanded
- percentage of cell aggregates with size (diameter) 60 μm or more and 300 μm or less [3, 7]: 99.5%
- percentage of cell aggregates with size (diameter) 80 μm or more and 300 μm or less [3, 7]: 98.5%
- percentage of cell aggregates with size (diameter) 100 μm or more and 300 μm or less [3, 7]: 98.5%
- average±standard deviation of cell aggregate size (diameter) ([3]; Day 1 of culture, 10 μM CCG-1423, 208 cell aggregates): 171.3±22.8 μm
- percentage of cell aggregates with size (diameter) 40 μm or more and 300 μm or less ([3]; Day 1 of culture, 10 μM CCG-1423, to total cell aggregate count): 100%
- Number of cell aggregates by size [3, 8]: 1
- Percentage of cell aggregates by size [3, 8]: 0.5%
- Number of cell aggregates by size [3, 9]: 2
- Percentage of cell aggregates by size [3, 9]: 1.0%
- Number of cell aggregates by size [3, 10]: 0
- Percentage of cell aggregates by size [3, 10]: 0.0%
- Number of cell aggregates by size [3, 11]: 2
- Percentage of cell aggregates by size [3, 11]: 1.0%
- Number of cell aggregates by size [3, 12]: 6
- Percentage of cell aggregates by size [3, 12]: 2.9%
- Number of cell aggregates by size [3, 13]: 39
- Percentage of cell aggregates by size [3, 13]: 18.8%
- Number of cell aggregates by size [3, 14]: 87
- Percentage of cell aggregates by size [3, 14]: 41.8%
- Number of cell aggregates by size [3, 15]: 60
- Percentage of cell aggregates by size [3, 15]: 28.8%
- Number of cell aggregates by size [3, 16]: 9
- Percentage of cell aggregates by size [3, 16]: 4.3%
- Number of cell aggregates by size [3, 17]: 2
- Percentage of cell aggregates by size [3, 17]: 1.0%
- Number of cell aggregates by size [3, 18]: 0
- Percentage of cell aggregates by size [3, 18]: 0.0%
- Number of cell aggregates by size [3, 19]: 0
- Percentage of cell aggregates by size [3, 19]: 0.0%
- Number of cell aggregates by size [3, 20]: 0
- Percentage of cell aggregates by size [3, 20]: 0.0%
- Number of cell aggregates by size [3, 21]: 0
- Percentage of cell aggregates by size [3, 21]: 0.0%
- number of dead cells compared to the control test (0 μM CCG-1423) [4]: reduced
- proliferation of the number of seeded cells (8×10^5 cells/well) [5]: approximately 8.5 fold
- glucose consumption [6]: increased daily
